The values that follow come from US20090030037A1, “Sustained Release Formulation and Dosing Schedules of Leukotriene Synthesis Inhibitor for Human Therapy” (deCODE Genetics ehf., priority 2005, published 2009).

Each structure is given as a SMILES string.

Format in all cases: in vivo, human
One data set concerns sICAM. As to the kind of experiment: Study DG-031-201: ICAM (sICAM-1). The note with it: [0%,6%], p=0.03. As for the experimental part:
Patients who met the study eligibility criteria were enrolled and randomized into 3 different dose-level groups: (1) 64 patients on 250 mg/day therapy with DG-031 (250 mg q.d.), vs placebo; (2) 64 patients on 500 mg/day therapy with DG-031 (250 mg b.i.d.) vs placebo; and (3) 63 patients on 750 mg/day therapy with DG-031 (250 mg t.i.d.) vs placebo. […] All patients received 3 tablets per day. Treatment periods, 4 weeks in duration each, were separated by a 2-week washout period. The placebo tablets were identical in shape, color, form and taste to the active tablets except that they contained no active drug ingredients. Treatment with DG-031 or placebo was in addition to the subject's standard care, including all medications and treatment plan as prescribed by the subject's cardiologist prior to enrolment. A total of 191 subjects were enrolled, with 172 completing all 8 visits or 8 patients short of the target of 180 patients. […]
All data were analyzed according to a pre-established statistical analysis plan (SAP) and by intention-to-treat (ITT). […] The difference between DG-031 and placebo treatment was the primary outcome, assessed separately for each of the biomarkers. […]

A further data set deals with LTB4. Briefly: Exposure-response analysis: estimated reduction in stimulated LTB4 by DG-031 daily dose. The settings on record: for Estimated Percent LTB4 Reduction by DG-031 Daily Dose, Mean: stimulated LTB4, mean model prediction from studies DG-031-201 and DG-031-203. As for the experimental part:
Administration of DG-031 500 mg BID reduced LTB4 levels to the target 35% reduction, as measured in the ionophore-stimulation assay described in Example 1. The estimated DG-031-induced reduction in stimulated LTB4 levels was based on all the relevant data observed in the DG-031-201 and DG-031-203 studies. The control baseline was 7.8%. The data presented in Table 14 are the mean and the 5th and 95th percentiles based on the mean model prediction (the 90% confidence interval on the estimated LTB4 response).
The pharmacokinetic characteristics of the tested DG-031 formulation result in an observed mean peak concentrations of 8.8 μg/mL and mean trough concentrations of 4.3 μg/mL. (Table 18) The characteristics of the tested formulation leads to prolonged drug absorption that minimizes the peak to trough fluctuation in DG-031 plasma concentration and LTB4 response.

In a further data set the test system is CRP. As to the kind of experiment: Study DG-031-203: serum CRP. As for the experimental part: The study also collected information on the dose-related effect of DG-031 on capacity for LTB4 production (ex vivo), plasma MPO, and serum-CRP. […] The pattern observed supported a concentration dependent pharmacologic effect of DG-031 on capacity for LTB4 production measured ex vivo. The effects on LTB4 production amounted to a 30% (p=0.016) and 25% (p=0.094) reduction with the 375 mg BID and 250 mg TID doses, respectively.

The next data set relates to LDL cholesterol. Briefly: Study DG-031-201: LDL cholesterol. The note with it: highest dose of DG-031. The protocol:
Patients who met the study eligibility criteria were enrolled and randomized into 3 different dose-level groups: (1) 64 patients on 250 mg/day therapy with DG-031 (250 mg q.d.), vs placebo; (2) 64 patients on 500 mg/day therapy with DG-031 (250 mg b.i.d.) vs placebo; and (3) 63 patients on 750 mg/day therapy with DG-031 (250 mg t.i.d.) vs placebo. […] All patients received 3 tablets per day. Treatment periods, 4 weeks in duration each, were separated by a 2-week washout period. The placebo tablets were identical in shape, color, form and taste to the active tablets except that they contained no active drug ingredients. Treatment with DG-031 or placebo was in addition to the subject's standard care, including all medications and treatment plan as prescribed by the subject's cardiologist prior to enrolment. A total of 191 subjects were enrolled, with 172 completing all 8 visits or 8 patients short of the target of 180 patients.
All data were analyzed according to a pre-established statistical analysis plan (SAP) and by intention-to-treat (ITT). Each arm of the study, as well as pooled sets (combining dose levels), was considered for the primary analysis. […] The difference between DG-031 and placebo treatment was the primary outcome, assessed separately for each of the biomarkers. […]

Regarding `O=C(O)[C@@H](c1ccc(OCc2ccc3ccccc3n2)cc1)C1CCCC1` [DG-031, (R)-(+)-alpha-cyclopentyl-4-(2-quinolinylmethoxy)-Benzeneacetic acid], the “Effect on serum sICAM-1” value in the data set with sICAM is on record as “reduced significantly”. Also, the Average drug exposure in the data set on LTB4 (500 mg BID (1000 mg daily)) was 7.6 µg/mL. The “Reduction in stimulated LTB4 production” value in the data set with LTB4 (500 mg BID, 90% prediction interval −45% to −24%) was 37%. Besides, the “Estimated Percent LTB4 Reduction by DG-031 Daily Dose, Mean” value in the data set with LTB4 (daily dose 250) was −8.7%; in the data set on LTB4 (daily dose 500), −19.4%; in the data set with LTB4 (daily dose 750) it was −28.8%; in the data set on LTB4 (daily dose 1000) it was −37.1%; in the data set with LTB4 (daily dose 1250), −44.5%; with LTB4 (daily dose 1500), −50.9%. For the same molecule, the “Reduction in CRP levels, high CRP group” value in the data set on CRP (250 mg TID, CRP above median 1.4 mg/L at entry) is given as 48%; in the data set with CRP (375 mg BID, CRP above median at entry, p=0.16), 31%. The “CRP, change” value in the data set with CRP (250 mg TID, Study 203, 1 wk) is 37% (St. 203); in the data set on CRP (375 mg BID, Study 203) it was “No effect”; in the data set on CRP (375 mg QD, Study 203, 1 wk), −28%. The “Reduction of serum CRP” value with CRP (250 mg TID, after one week, follow-up study (203), all subjects) is 38%. For the same molecule, the “Change in serum CRP” value in the data set on CRP (375 mg BID, one week, all subjects) is reported as −1%. In the data set on LDL cholesterol, the “Increase in LDL cholesterol” value was 8%.
